From ChEMBL document CHEMBL4002626, “Identification of a selective inhibitor of transforming growth factor β-activated kinase 1 by biosensor-based screening of focused libraries” (Bioorg Med Chem Lett, 2017)
Each block holds one compound with its values, some of them ahead of it. Calls of active or inactive are those of the source. No cut-off for these calls is given here.

Columns and labels:
[1] = target: T1, Mitogen-activated protein kinase kinase kinase 7 (Homo sapiens) (UniProt O43318); assay: Binding affinity to recombinant human biotinylated N-terminal GST-tagged TAK1 (1 to 303 residues) fused with TAB1 (437 to 504 residues) expressed in baculovirus infected sf9 cells at 250 uM in presence of adenosine by SPR assay
T1 sequence (whole entry): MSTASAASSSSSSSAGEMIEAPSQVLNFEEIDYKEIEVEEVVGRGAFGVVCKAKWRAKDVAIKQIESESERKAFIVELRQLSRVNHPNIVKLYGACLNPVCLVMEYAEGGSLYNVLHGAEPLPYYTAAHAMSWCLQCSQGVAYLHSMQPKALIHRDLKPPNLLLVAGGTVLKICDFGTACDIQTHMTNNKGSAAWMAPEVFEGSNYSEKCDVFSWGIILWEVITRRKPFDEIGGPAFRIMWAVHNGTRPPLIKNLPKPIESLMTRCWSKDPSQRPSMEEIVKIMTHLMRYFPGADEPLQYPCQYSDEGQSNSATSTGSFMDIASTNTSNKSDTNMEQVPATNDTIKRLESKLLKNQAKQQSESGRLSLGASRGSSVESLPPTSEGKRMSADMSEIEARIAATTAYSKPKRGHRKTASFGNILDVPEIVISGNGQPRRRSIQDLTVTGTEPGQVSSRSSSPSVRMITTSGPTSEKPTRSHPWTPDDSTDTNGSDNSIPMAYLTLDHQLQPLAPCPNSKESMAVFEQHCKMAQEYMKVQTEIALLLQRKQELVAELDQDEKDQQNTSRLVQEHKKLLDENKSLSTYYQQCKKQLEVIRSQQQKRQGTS

[2] = target: T1, Mitogen-activated protein kinase kinase kinase 7 (Homo sapiens); assay: Binding affinity to TAK1 (unknown origin) at 5 uM using spin-labeled probe by 1H NMR method
[3] = target: T2, Mitogen-activated protein kinase kinase kinase 7 (Homo sapiens, UniProt O43318); assay: Binding affinity to recombinant human biotinylated N-terminal GST-tagged non-autophosphorylated TAK1 (1 to 303 residues) fused with TAB1 (437 to 504 residues) expressed in baculovirus infected sf9 cells by SPR assay
T2 sequence (O43318 whole entry): T1 sequence (whole entry)

[4] = target: T2, Mitogen-activated protein kinase kinase kinase 7; assay: Binding affinity to recombinant human biotinylated N-terminal GST-tagged autophosphorylated TAK1 (1 to 303 residues) fused with TAB1 (437 to 504 residues) expressed in baculovirus infected sf9 cells by SPR assay
[5] = target: Proto-oncogene tyrosine-protein kinase Src (Homo sapiens, UniProt P12931); assay: Inhibition of recombinant full length human N-terminal GST-tagged SRC (1 to 536 residues) expressed in baculovirus expression system
[6] = target: T3, Protein kinase C beta type (Homo sapiens, UniProt P05771); assay: Inhibition of recombinant full length human N-terminal GST-tagged PKCbeta2 (1 to 673 residues) expressed in baculovirus expression system
[7] = target: Insulin receptor (Homo sapiens, UniProt P06213); assay: Inhibition of recombinant human N-terminal GST-tagged INSR cytoplasmic domain (1005 to 1310 residues) expressed in baculovirus expression system
[8] = target: Aurora kinase A (Homo sapiens, UniProt O14965); assay: Inhibition of recombinant full length human N-terminal GST-tagged Aurora kinase-A (1 to 403 residues) expressed in baculovirus expression system
[9] = target: RAF proto-oncogene serine/threonine-protein kinase (Homo sapiens, UniProt P04049); assay: Inhibition of recombinant human N-terminal GST-tagged RAF1 catalytic domain (306 to 648 residues) expressed in baculovirus expression system
[10] = target: Leukocyte tyrosine kinase receptor (Homo sapiens, UniProt P29376); assay: Inhibition of recombinant human N-terminal GST-tagged LTK cytoplasmic domain (498 to 796 residues) expressed in baculovirus expression system
[11] = target: Ephrin type-A receptor 2 (Homo sapiens, UniProt P29317); assay: Inhibition of recombinant human N-terminal GST-tagged EPHA2 cytoplasmic domain (572 to 976 residues) expressed in baculovirus expression system
[12] = target: Mitogen-activated protein kinase 14 (Homo sapiens, UniProt Q16539); assay: Inhibition of recombinant human N-terminal GST-tagged p38-alpha (9 to 352 residues) expressed in Escherichia coli expression system
[13] = target: Protein-tyrosine kinase 6 (Homo sapiens, UniProt Q13882); assay: Inhibition of recombinant full length human N-terminal GST-tagged BRK (2 to 451 residues) expressed in baculovirus expression system
[14] = target: Dual specificity mitogen-activated protein kinase kinase 1 (Homo sapiens, UniProt Q02750); assay: Inhibition of MEK1 (unknown origin)
[15] = target: Vascular endothelial growth factor receptor 2 (Homo sapiens, UniProt P35968); assay: Inhibition of recombinant human N-terminal GST-tagged KDR cytoplasmic domain (790 to 1356 residues) expressed in baculovirus expression system
[16] = target: T3, Protein kinase C beta type; assay: Inhibition of recombinant full length human N-terminal GST-tagged PKCbeta1 (1 to 671 residues) expressed in baculovirus expression system
[17] = target: Mast/stem cell growth factor receptor Kit (Homo sapiens, UniProt P10721); assay: Inhibition of recombinant human N-terminal GST-tagged KIT cytoplasmic domain (544 to 976 residues) expressed in baculovirus expression system
[18] = target: Epithelial discoidin domain-containing receptor 1 (Homo sapiens, UniProt Q08345); assay: Inhibition of recombinant human N-terminal GST-tagged DDR1 cytoplasmic domain (444 to 876 residues) expressed in baculovirus expression system
[19] = target: Focal adhesion kinase 1 (Homo sapiens, UniProt Q05397); assay: Inhibition of recombinant human N-terminal GST-tagged FAK cytoplasmic domain (376 to 1052 residues) expressed in baculovirus expression system
[20] = target: Receptor-type tyrosine-protein kinase FLT3 (Homo sapiens, UniProt P36888); assay: Inhibition of recombinant human N-terminal GST-tagged FLT3 cytoplasmic domain (564 to 993 residues) expressed in baculovirus expression system
[21] = target: Tyrosine-protein kinase Lyn (Homo sapiens, UniProt P07948); assay: Inhibition of LYN (unknown origin)
[22] = target: BMP-2-inducible protein kinase (Homo sapiens) (UniProt Q9NSY1); assay: Inhibition of human BIKE (S34 to N329 residues) expressed in bacterial expression system at 1 uM by KINOMEscan assay
[23] = target: Fibroblast growth factor receptor 2 (Homo sapiens, UniProt P21802); assay: Inhibition of recombinant human N-terminal GST-tagged FGFR2 cytoplasmic domain (399 to 821 residues) expressed in baculovirus expression system
[24] = target: Macrophage-stimulating protein receptor (Homo sapiens, UniProt Q04912); assay: Inhibition of recombinant human N-terminal GST-tagged RON cytoplasmic domain (979 to 1400 residues) expressed in baculovirus expression system
[25] = Solubility of the compound in 50 mM phosphate buffer at pH 6.5 after 24 hrs by HPLC-UV spectrophotometric assay; format: physicochemical
[26] = target: Tyrosine-protein kinase receptor UFO (Homo sapiens, UniProt P30530); assay: Inhibition of recombinant human N-terminal GST-tagged AXL cytoplasmic domain (464 to 885 residues) expressed in baculovirus expression system
[27] = target: Protein kinase C alpha type (Homo sapiens, UniProt P17252); assay: Inhibition of recombinant full length human N-terminal GST-tagged PKCalpha (1 to 351 residues) expressed in baculovirus expression system
[28] = target: Epidermal growth factor receptor (Homo sapiens, UniProt P00533); assay: Inhibition of recombinant human N-terminal GST-tagged EGFR cytoplasmic domain (669 to 1210 residues) expressed in baculovirus expression system
[29] = target: Tyrosine-protein kinase ABL1 (Homo sapiens, UniProt P00519); assay: Inhibition of recombinant full length human N-terminal GST-tagged ABL (2 to 1130 residues) expressed in baculovirus expression system
[30] = Solubility of the compound in fasted state simulated intestinal fluid at pH 6.5 after 24 hrs by HPLC-UV spectrophotometric assay; format: physicochemical
[31] = target: T1, Mitogen-activated protein kinase kinase kinase 7 (Homo sapiens); assay: Binding affinity to recombinant human biotinylated N-terminal GST-tagged TAK1 (1 to 303 residues) fused with TAB1 (437 to 504 residues) expressed in baculovirus infected sf9 cells at 1 uM in presence of ATP by SPR assay
[32] = target: Tyrosine-protein kinase Yes (Homo sapiens, UniProt P07947); assay: Inhibition of recombinant full length human N-terminal GST-tagged YES (1 to 543 residues) expressed in baculovirus expression system
[33] = Inhibition of PKA (unknown origin); design: species or system Homo sapiens
[34] = target: Cyclin-dependent kinase 1 (Homo sapiens, UniProt P06493); assay: Inhibition of CDK1 (unknown origin)
[35] = target: Insulin-like growth factor 1 receptor (Homo sapiens, UniProt P08069); assay: Inhibition of recombinant human N-terminal GST-tagged IGF1R cytoplasmic domain (959 to 1367 residues) expressed in baculovirus expression system
[36] = target: Hepatocyte growth factor receptor (Homo sapiens, UniProt P08581); assay: Inhibition of recombinant human N-terminal GST-tagged MET cytoplasmic domain (956 to 1390 residues) expressed in baculovirus expression system
[37] = Inhibition of PDGFR (unknown origin); design: species or system Homo sapiens
[38] = target: Tyrosine-protein kinase Fyn (Homo sapiens, UniProt P06241); assay: Inhibition of FYN (unknown origin)
[39] = target: RAC-alpha serine/threonine-protein kinase (Homo sapiens, UniProt P31749); assay: Inhibition of recombinant human N-terminal GST-tagged AKT1 catalytic domain (104 to 480 residues) expressed in baculovirus expression system
[40] = target: Tyrosine-protein kinase Lck (Homo sapiens, UniProt P06239); assay: Inhibition of recombinant full length human N-terminal GST-tagged LCK (1 to 509 residues) expressed in baculovirus expression system
[41] = target: Cyclin-dependent kinase 2 (Homo sapiens, UniProt P24941); assay: Inhibition of CDK2 (unknown origin)
[42] = target: Protein kinase C zeta type (Homo sapiens, UniProt Q05513); assay: Inhibition of recombinant full length human N-terminal GST-tagged PKCzeta (1 to 592 residues) expressed in baculovirus expression system
Chain of Protein kinase C zeta type (Q05513 whole entry, the tested form may be a part): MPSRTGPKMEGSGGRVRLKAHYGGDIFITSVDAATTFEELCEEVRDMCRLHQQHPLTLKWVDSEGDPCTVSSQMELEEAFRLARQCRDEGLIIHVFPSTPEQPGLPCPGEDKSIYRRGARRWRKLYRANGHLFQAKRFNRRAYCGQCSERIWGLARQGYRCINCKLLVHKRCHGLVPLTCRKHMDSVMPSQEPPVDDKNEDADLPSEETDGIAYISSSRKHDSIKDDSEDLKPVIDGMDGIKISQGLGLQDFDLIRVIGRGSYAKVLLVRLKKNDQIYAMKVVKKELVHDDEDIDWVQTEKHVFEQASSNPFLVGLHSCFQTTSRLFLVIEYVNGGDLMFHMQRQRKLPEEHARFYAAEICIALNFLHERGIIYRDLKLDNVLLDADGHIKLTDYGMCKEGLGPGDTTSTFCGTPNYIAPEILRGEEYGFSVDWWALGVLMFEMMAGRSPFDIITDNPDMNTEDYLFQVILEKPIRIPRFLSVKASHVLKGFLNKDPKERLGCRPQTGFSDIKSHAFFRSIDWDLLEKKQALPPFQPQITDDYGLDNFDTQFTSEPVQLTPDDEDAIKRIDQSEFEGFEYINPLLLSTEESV

T3 sequence (P05771 whole entry, the tested form may be a part): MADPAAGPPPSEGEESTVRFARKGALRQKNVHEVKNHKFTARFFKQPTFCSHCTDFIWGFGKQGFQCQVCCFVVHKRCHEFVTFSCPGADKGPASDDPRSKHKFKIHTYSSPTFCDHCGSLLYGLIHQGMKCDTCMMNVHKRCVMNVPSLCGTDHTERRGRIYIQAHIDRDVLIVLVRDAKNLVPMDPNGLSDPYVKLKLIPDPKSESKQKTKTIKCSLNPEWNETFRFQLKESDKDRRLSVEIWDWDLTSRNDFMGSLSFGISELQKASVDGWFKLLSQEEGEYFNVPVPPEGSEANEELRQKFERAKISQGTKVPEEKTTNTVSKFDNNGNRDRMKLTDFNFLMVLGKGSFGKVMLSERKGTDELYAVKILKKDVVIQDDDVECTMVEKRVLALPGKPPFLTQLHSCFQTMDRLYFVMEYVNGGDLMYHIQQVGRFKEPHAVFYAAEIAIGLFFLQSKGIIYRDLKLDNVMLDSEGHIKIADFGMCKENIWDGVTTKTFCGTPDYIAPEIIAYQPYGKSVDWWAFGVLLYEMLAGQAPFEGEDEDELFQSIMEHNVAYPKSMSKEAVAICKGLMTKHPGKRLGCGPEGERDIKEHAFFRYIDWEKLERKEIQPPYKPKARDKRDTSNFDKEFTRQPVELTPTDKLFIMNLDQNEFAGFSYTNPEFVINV
Chain of Macrophage-stimulating protein receptor (Q04912 25-304 limits assumed): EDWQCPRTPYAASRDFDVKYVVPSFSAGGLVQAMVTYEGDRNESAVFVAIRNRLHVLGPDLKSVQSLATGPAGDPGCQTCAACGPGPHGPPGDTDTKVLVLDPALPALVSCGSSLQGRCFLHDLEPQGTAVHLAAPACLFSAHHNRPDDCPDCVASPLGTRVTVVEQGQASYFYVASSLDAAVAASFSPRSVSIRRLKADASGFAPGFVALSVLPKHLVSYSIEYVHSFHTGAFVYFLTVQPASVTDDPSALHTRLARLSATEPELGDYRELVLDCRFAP
Chain of Macrophage-stimulating protein receptor (Q04912 310-1400 limits assumed): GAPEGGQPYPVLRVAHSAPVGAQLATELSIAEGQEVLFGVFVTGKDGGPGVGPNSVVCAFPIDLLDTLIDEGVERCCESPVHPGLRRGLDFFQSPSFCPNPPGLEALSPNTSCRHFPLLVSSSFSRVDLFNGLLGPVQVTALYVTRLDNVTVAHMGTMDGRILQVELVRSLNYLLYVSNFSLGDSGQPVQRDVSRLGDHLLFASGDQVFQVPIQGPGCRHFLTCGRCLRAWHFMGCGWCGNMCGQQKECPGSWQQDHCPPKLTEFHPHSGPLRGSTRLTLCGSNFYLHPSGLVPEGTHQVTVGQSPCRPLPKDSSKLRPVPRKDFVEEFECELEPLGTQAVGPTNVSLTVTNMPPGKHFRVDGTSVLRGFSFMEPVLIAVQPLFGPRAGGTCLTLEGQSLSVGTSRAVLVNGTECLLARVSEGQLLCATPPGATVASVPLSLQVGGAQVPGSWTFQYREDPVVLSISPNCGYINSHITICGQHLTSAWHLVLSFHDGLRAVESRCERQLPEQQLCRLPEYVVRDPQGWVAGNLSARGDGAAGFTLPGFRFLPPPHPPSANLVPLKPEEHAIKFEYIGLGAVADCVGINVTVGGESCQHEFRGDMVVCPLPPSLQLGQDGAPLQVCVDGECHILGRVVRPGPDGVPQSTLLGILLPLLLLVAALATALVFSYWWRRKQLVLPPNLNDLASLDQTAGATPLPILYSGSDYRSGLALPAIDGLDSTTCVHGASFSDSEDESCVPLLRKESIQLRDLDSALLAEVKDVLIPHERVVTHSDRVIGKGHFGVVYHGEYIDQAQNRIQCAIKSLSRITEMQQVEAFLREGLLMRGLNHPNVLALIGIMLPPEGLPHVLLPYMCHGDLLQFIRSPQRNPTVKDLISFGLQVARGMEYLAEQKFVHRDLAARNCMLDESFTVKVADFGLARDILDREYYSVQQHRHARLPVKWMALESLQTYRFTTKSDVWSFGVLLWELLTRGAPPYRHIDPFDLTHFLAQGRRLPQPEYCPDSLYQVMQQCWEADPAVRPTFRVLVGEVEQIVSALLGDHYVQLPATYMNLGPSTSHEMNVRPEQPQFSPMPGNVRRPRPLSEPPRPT
Chain of Ephrin type-A receptor 2 (P29317 whole entry, the tested form may be a part): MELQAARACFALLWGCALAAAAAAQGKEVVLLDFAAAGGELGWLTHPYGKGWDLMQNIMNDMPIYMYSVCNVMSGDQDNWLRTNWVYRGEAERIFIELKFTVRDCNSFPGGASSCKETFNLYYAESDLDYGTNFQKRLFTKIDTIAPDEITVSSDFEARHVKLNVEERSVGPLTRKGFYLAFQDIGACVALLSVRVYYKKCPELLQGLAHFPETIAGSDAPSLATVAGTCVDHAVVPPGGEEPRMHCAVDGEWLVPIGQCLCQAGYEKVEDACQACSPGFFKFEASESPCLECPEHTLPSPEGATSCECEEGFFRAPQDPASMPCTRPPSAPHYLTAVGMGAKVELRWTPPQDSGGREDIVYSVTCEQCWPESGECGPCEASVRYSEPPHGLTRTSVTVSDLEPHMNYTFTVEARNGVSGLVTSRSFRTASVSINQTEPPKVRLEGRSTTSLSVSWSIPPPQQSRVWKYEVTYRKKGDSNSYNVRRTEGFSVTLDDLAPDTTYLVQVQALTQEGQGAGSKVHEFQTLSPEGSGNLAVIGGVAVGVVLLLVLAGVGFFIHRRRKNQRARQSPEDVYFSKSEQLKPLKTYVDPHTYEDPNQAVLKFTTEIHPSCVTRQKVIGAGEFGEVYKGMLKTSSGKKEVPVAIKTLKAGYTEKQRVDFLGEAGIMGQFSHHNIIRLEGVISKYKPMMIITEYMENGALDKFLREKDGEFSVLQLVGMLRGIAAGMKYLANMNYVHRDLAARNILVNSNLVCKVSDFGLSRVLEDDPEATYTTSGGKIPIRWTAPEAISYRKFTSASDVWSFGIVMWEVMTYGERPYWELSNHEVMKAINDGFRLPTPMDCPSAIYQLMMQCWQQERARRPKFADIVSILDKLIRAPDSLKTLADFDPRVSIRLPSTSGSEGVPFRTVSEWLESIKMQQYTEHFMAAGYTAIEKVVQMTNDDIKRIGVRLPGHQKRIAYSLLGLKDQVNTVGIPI
Chain of Tyrosine-protein kinase ABL1 (P00519 whole entry, the tested form may be a part): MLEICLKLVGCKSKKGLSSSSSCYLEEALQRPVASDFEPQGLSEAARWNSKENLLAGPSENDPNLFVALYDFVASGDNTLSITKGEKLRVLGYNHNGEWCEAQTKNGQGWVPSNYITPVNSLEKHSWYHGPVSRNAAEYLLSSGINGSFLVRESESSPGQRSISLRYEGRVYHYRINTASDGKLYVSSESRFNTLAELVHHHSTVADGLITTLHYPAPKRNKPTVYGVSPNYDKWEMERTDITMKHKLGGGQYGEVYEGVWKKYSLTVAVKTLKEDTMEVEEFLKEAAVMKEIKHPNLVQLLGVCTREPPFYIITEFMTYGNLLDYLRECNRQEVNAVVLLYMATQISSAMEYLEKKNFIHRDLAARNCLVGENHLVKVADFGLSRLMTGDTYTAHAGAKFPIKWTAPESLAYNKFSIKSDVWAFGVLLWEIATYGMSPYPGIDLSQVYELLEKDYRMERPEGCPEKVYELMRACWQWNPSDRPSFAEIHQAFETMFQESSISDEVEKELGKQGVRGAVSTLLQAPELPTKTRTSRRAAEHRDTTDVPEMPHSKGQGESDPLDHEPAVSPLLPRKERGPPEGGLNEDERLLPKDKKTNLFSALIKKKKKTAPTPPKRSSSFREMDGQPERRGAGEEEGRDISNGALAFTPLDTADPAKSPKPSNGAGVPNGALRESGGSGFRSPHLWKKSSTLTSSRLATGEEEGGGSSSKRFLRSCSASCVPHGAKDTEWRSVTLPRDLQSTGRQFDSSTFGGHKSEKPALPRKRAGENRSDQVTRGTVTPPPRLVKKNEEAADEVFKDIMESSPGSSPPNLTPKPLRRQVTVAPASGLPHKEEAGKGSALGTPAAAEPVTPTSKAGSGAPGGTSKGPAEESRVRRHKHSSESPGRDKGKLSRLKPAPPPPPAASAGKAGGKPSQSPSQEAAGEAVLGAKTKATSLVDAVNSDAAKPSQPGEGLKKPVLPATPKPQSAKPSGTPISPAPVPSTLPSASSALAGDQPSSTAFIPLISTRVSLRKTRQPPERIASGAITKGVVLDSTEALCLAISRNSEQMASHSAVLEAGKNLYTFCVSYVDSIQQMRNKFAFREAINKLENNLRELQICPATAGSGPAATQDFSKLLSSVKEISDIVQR
Chain of Cyclin-dependent kinase 1 (P06493 whole entry, the tested form may be a part): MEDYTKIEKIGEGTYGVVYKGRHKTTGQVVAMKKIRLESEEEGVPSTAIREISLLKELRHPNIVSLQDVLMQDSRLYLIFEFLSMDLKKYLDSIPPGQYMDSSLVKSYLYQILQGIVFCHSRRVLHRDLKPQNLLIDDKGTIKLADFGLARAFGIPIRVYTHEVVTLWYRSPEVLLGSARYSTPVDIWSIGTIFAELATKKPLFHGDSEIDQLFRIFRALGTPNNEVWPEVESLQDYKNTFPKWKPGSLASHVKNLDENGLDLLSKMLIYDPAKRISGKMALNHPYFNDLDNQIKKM

Compound: Oc1cnnc(SCc2ccc(Br)cc2)n1
Activity [1]: Active | Activity [2]: Active

Compound: Nc1ncnc2c1ncn2[C@@H]1O[C@H](COP(=O)(O)O)[C@@H](O)[C@H]1O [ADENOSINE PHOSPHATE]
Kd [3]: 370 µM | Kd [4]: 120 µM

Compound: Nc1ncnc2c1ncn2[C@@H]1O[C@H](COP(=O)(O)OP(=O)(O)OP(=O)(O)O)[C@@H](O)[C@H]1O [ADENOSINE TRIPHOSPHATE]
Kd [4]: 2.8 µM

Compound: Nc1ncnc2c1ncn2[C@@H]1O[C@H](COP(=O)(O)OP(=O)(O)O)[C@@H](O)[C@H]1O [ADENOSINE DIPHOSPHATE]
Kd [3]: 63 µM | Kd [4]: 4.1 µM

Compound: CN1CCN(c2cccc3cc(NC(=O)Nc4ccc(Oc5ccnc6[nH]ccc56)cc4)ccc23)CC1
Kd [4]: 0.012 µM

More lines, in order of falling Kd [4], values ahead:

Kd [3]: 34 µM | Kd [4]: 4.4 µM
Compound: Nc1ncnc2c1ncn2[C@@H]1O[C@H](CO)[C@@H](O)[C@H]1O [ADENOSINE]

IC50 [5]: > 50 µM | IC50 [6]: > 50 µM | IC50 [7]: > 50 µM | IC50 [8]: 42 µM | IC50 [9]: > 50 µM | IC50 [10]: > 50 µM | IC50 [11]: > 50 µM | IC50 [12]: > 50 µM | IC50 [13]: > 50 µM | IC50 [14]: > 50 µM | IC50 [15]: > 50 µM | IC50 [16]: > 50 µM | IC50 [17]: > 50 µM | IC50 [18]: > 50 µM | Kd [3]: 0.15 µM | IC50 [19]: > 50 µM | IC50 [20]: 0.056 µM | IC50 [21]: > 50 µM | inhibition [22]: Active | IC50 [23]: > 50 µM | IC50 [24]: > 50 µM | solubility at 24 h [25]: < 3 µg/mL | IC50 [26]: > 50 µM | IC50 [27]: > 50 µM | IC50 [28]: > 50 µM | IC50 [29]: > 50 µM | solubility at 24 h [30]: < 3 µg/mL | Activity [31]: Active | IC50 [32]: > 50 µM | IC50 [33]: > 50 µM | IC50 [34]: > 50 µM | IC50 [35]: > 50 µM | Kd [4]: 0.059 µM | IC50 [36]: > 50 µM | IC50 [37]: > 50 µM | IC50 [38]: > 50 µM | IC50 [39]: > 50 µM | IC50 [40]: > 50 µM | IC50 [41]: > 50 µM | IC50 [42]: > 50 µM
Compound: COc1cc2ncccc2cc1NC(=O)c1csc2cncnc12
